# Experiments:
# [1] = system: frontal cortex neuronal networks (cortical network activity in vitro); assay: Acute effects on cortical neuronal network activity on MEA neurochips (spike train analysis); type: cell-based, mice
# Description: The experiments were performed according to the SOPs, “SOP Preparation Frontal Cortex Mouse—Serum (Rev. 07 2012 Mar. 6 eng)”, “SOP Solutions for Neuronal Cell Culture (Rev. 04 2009 Nov. 18 eng)”, “SOP Cleaning and Substrate Preparations of MEAs (Rev. 03 2009 Apr. 26 eng)”, “SOP Feeding neuronal cell culture”, “SOP Cell culture preparation MEAs”, “SOP Plexon Recording” and “SOP Plexon Data Analysis”.
# The microelectrode array neurochips (“MEA neurochips”) were provided by the Center for Network Neuroscience (CNNS) at the University of North Texas. These 5×5 cm^2 glass chips have a dual recording matrix with 32 passive electrodes per matrix and indium tin oxide conductors. The hydrophobic insulation material surface was activated by a brief butane flame pulse through a stainless steel mask. Thus, cell attachment on a confined region, a 5 mm diameter centered on the electrode array, is ensured. The activated face regions were coated with 25 μg/mL poly-D-lysine (30-70 kD) and incubated […] in 16 μg/mL laminin for 3 hours right before the preparation.
# Frontal cortex tissue was harvested from embryonic day 15 chr:NMRI mice. Mice were sacrificed by cervical dislocation according to the German Animal Protection Act Section 4. Cultures on MEAs were incubated at 37 deg. C. in a 10% CO2 atmosphere until ready for use, which usually is four weeks to three months after seeding. Culture media were replenished two times a week with DMEM containing 10% heat inactivated horse serum. The developing co-cultures were treated with the mitosis inhibitor 5-fluoro-2′-deoxyuridine (25 μMolar) and uridine (63 μMolar) for 48 hours on day 5 after seeding to prevent further glial proliferation.
# After establishing a stable activity pattern after 4 weeks, the neuronal networks on MEA chips were employed for substance testing. For this example, cultures between 25 and 38 days in vitro were used. For extracellular recording, MEA neurochips were placed into sterilized constant-bath recording chambers and maintained at 37 deg. C. Recordings were made in DMEM including 10% heat inactivated horse serum. The pH was maintained at 7.4 with a continuous stream of filtered, humidified airflow with 10% CO2. Sets of preamplifiers were positioned to either side of the recording chamber. Recording was performed with the multichannel acquisition processor system, a computer-controlled 64-channel amplifier system (Plexon, Inc., Dallas, Tex., USA) providing programmable amplification, filtering, switching, and digital signal processing of microelectrode signals. The total system gain used was 10K with a simultaneous 40 kHz sampling rate. The signals routinely recorded by these neurochips are located in a range of 15-1800 microV.
# The multichannel signal acquisition system delivered single neuron spike data. Spike identification and separation were accomplished with a template-matching algorithm in real time. This allows for the extracellular recording from action potentials from a maximum of 256 neurons simultaneously.
# The action potentials, or spikes, were recorded in spike trains and are clustered in so-called bursts. Bursts were quantitatively described via direct spike train analysis using the program NeuroEXplorer (Plexon Inc., Dallas, Tex., USA) and in house programs. Bursts were defined by the beginning and the end of short spike invents. Maximum spike intervals defining the start of a burst were 40 ms and maximum intervals to end a burst from 200 ms.
# (§1) All compounds were recorded with a fixed DMSO concentration of 0.1% throughout the experiments. Due to the fact that alpha-lipoic acid was investigated at concentrations between 100 μM and 5 mM, the solvent concentration reached 0.7%.
# The high content analysis of the network activity patterns provides a multiparametric description characterized in four activity categories: general activity, burst structure, synchronicity and oscillatory behavior. […]
# [2] = Precipitation on dilution of stock into experiment bath solution; type: physicochemical; settings: 1 M stock in 100% DMSO; bath 1, 3 and 5 mM
# Description: as §1, with “0.7%. […] Working solutions of all compounds were freshly prepared for each experiment day and between 0.9 and 10 μL were applied to a 1 mL experiment bath solution.” for “0.7%.”
# [3] = system: neuronal activity (spike rate and burst rate); assay: Chronic effects of hBDNF on neuronal activity development in the MEA system; type: cell-based; settings: 20 ng/ml, FIG. 15
# Excerpt: For neurotrophic factors such as hBDNF, NeuroProof tested the chronic effects in the MEA system (See FIG. 15).
compound,measurement,setting,value
"O=C(O)CCCCC1CCSS1 (stereo not drawn) [ALA, alpha-lipoic acid]",activity reached (spike rate fit),"[1]; 100 μM alpha-lipoic acid, FIG. 6",91.5 % of control (0.1% DMSO) activity
same,activity reached (spike rate fit),"[1]; 1 mM alpha-lipoic acid, FIG. 6",83.6 % of control (0.1% DMSO) activity
same,activity reached (spike rate fit),"[1]; 5 mM alpha-lipoic acid, FIG. 6",43.9 % of control (0.1% DMSO) activity
same,concentration at which general activity is affected (spike rate fit),[1]; FIG. 6,above 100 μM
same,EC50,"[1]; Mus musculus, concentration of ALA, FIGS. 9 and 10, read-out: EC50 for the decline of activity",5.03 mM
same,Hill coefficient (nH) of the decline of activity,"[1]; concentrations above 100 μM ALA, higher value = steeper slope",1.66
same,concentration at which general activity is reduced,[1]; experimental concentrations,≥ 1 mM
same,precipitation during dilution,[2],precipitation of alpha-lipoic acid occurred at the three highest concentrations
"CC/C=C\C/C=C\C/C=C\C/C=C\C/C=C\C/C=C\CCC(=O)O [DHA, docosahexaenoic acid]","activity (spike rate fit), activity decline reached","[1]; 100 μM DHA, highest tested concentration, FIG. 5",63.6 % of native activity
same,concentration at which spike rates and burst rates are reduced,[1]; increasing effects at higher concentrations,≥ 100 pM
"hBDNF: Human recombinant brain derived neurotrophic factor, PeproTech #450-02",effect on general activity,"[1]; above 500 pg/mL, tested 10 pg/mL to 50 μg/mL",only shows slight effects on the general activity which is numerically increased
same,EC50 on spike rate,[1]; acute application,5.28 ng/mL
same,acceleration of neuronal activity development,[3]; chronic,approximately one week
same,"general activity (spike rate, burst rate), chronic treatment",[3]; versus vehicle,increases the general activity at every recorded time point
